Tests used:
Assay in all cases: Minimum inhibitory concentration (MIC), agar plate dilution method
Format in all cases: cell-based
Pr. morganii IFO3848 = conditions: Morganella morganii, IFO3848; 10^6 CFU inoculated, 37° C., 18 hours
Method: (§1) With regard to the novel compounds obtained according to this invention and the compounds of Reference Examples, their minimum inhibitory concentrations (MIC) were determined by the agar plate dilution method in accordance with the MIC measuring standard method of The Chemotherapeutic Society of Japan, whereby 10^6 colony forming units were inoculated and the minimal concentration to inhibit the microbial growth after inclubation at 37° C. for 18 hours were determined, as shown as μg/ml in Table.

B. fragilis V-280-1 = conditions: Bacteroides fragilis, V2801; 10^6 CFU inoculated, 37° C., 18 hours
Method: as §1

E. coli NIHI JC-2 = conditions: Escherichia coli, NIHIJC2; 10^6 CFU inoculated, 37° C., 18 hours
Method: as §1

E. coli W3630/Rms212 = conditions: Escherichia coli, W3630/RMS212, 18 h, read-out: minimum inhibitory concentration (MIC)
Method: as §1

M. luteus ATCC9341 = conditions: Micrococcus luteus, ATCC9341; 10^6 CFU inoculated, 37° C., 18 hours
Method: as §1

B. fragilis GM7000 = conditions: Bacteroides fragilis, GM7000; 10^6 CFU inoculated, 37° C., 18 hours
Method: as §1

Pr. vulgaris GN7919 = conditions: Proteus vulgaris, GN7919; 10^6 CFU inoculated, 37° C., 18 hours
Method: as §1

S. aureus FAD209P JC-1 = conditions: Staphylococcus aureus, FAD209PJC1; 10^6 CFU inoculated, 37° C., 18 hours
Method: as §1

Ser. marcescens IMA 1136 = conditions: Serratia marcescens, IMA1136; 10^6 CFU inoculated, 37° C., 18 hours
Method: as §1

K. pneumoniae PC1602 = conditions: Klebsiella pneumoniae, PC1602; 10^6 CFU inoculated, 37° C., 18 hours
Method: as §1

Ent. cloacae 963 = conditions: Enterobacter cloacae, 963; 10^6 CFU inoculated, 37° C., 18 hours
Method: as §1

E. coli W3630/Rms213 = conditions: Escherichia coli, W3630/RMS213, 18 h, read-out: minimum inhibitory concentration (MIC)
Method: as §1

F. varium ATCC8501 = conditions: Fusobacterium varium, ATCC8501; 10^6 CFU inoculated, 37° C., 18 hours
Method: as §1

Al. fecalis IFO13111 = conditions: 10^6 CFU inoculated, 37° C., 18 hours
Method: as §1

SMILES	MIC (Pr. morganii IFO3848) [µg/mL]	MIC (B. fragilis V-280-1) [µg/mL]	MIC (E. coli NIHI JC-2) [µg/mL]	MIC (E. coli W3630/Rms212) [µg/mL]	MIC (M. luteus ATCC9341) [µg/mL]	MIC (B. fragilis GM7000) [µg/mL]	MIC (Pr. vulgaris GN7919) [µg/mL]	MIC (S. aureus FAD209P JC-1) [µg/mL]	MIC (Ser. marcescens IMA 1136) [µg/mL]	MIC (K. pneumoniae PC1602) [µg/mL]	MIC (Ent. cloacae 963) [µg/mL]	MIC (E. coli W3630/Rms213) [µg/mL]	MIC (F. varium ATCC8501) [µg/mL]	MIC (Al. fecalis IFO13111) [µg/mL]
C[C@@H](O)[C@H]1C(=O)N2C(C(=O)O)=C(C3COCCO3)S[C@H]12 (mixture of isomers) [SUN 4742, Potassium (1'R, 2"s, 5R, 6S and 1'R, 2"R, 5R, 6S)-6-(1'-hydroxyethyl)-2-(2"-paradioxanyl)penem-3-carboxylate]	6.25	0.05	1.56	3.13	0.1	0.05	0.78	0.05	6.25	0.1	6.25	0.78	0.78	0.78
C[C@@H](O)[C@H]1C(=O)N2C(C(=O)O)=C(Cc3ccsc3)S[C@H]12 (relative stereo) [SUN 3514, Potassium (1'R, 5R, 6S and 1'S, 5S, 6R)-6-(1'-hydroxyethyl)-2-(3"-thiophenemethyl)penem-3-carboxylate, reference compound]	8.13	0.39	> 50	50	0.2	0.39	6.25	0.05	50	0.78	> 50	25	0.39	0.39
CCSCC1=C(C(=O)O)N2C(=O)[C@H]([C@@H](C)O)[C@H]2S1 (relative stereo) [SUN 3515, Potassium (1'R, 5R, 6S and 1'S, 5S, 6R)-2-ethylmethylthio)-6-(1'-hydroxyethyl)-penem-3-carboxylate, reference compound]	3.13	0.2	25	25	0.2	0.1	1.56	0.1	25	0.78	50	12.5	0.39	0.78
CCOCC1=C(C(=O)O)N2C(=O)[C@H]([C@@H](C)O)[C@H]2S1 (relative stereo) [SUN 3519, Potassium (1'R, 5R, 6S and 1's, 5S, 6R)-2-(ethoxymethyl)-6-(1'-hydroxyethyl)-penem-3-carboxylate, reference compound]	6.25	0.1	6.25	6.25	0.2	0.1	1.56	0.2	12.5	1.56	12.5	6.25	0.39	1.56
COCC1=C(C(=O)O)N2C(=O)[C@H]([C@@H](C)O)[C@H]2S1 (relative stereo) [SUN 3585, Potassium (1'R, 5R, 6S and 1'S, 5S, 6R)-6-(1-hydroxyethyl)-2-(methoxymethyl)penem-3-carboxylate, reference compound]	6.25	0.1	0.78	0.78	0.1	0.05	0.78	0.1	3.13	0.78	3.13	0.78	0.78	1.56
C[C@@H](O)[C@H]1C(=O)N2C(C(=O)O)=C(C3CCCO3)S[C@H]12 (relative stereo) [SUN 4068, potassium (1'R, 2"R, 5R, 6S and 1'R, 2"S, 5R, 6S and 1'S, 2"R, 5S, 6R and 1'S, 2"S, 5S, 6R)-6-(1'-hydroxyethyl)-2-(2"-tetrahydrofuranyl)penem-3-carboxylate]	3.13	0.2	1.56	3.13	0.1	0.05	0.78	0.1	6.25	0.39	6.25	3.13	0.78	1.56
C[C@@H](O)[C@H]1C(=O)N2C(C(=O)O)=C([C@@H]3CCCO3)S[C@H]12 (relative stereo) [SUN 4118, potassium (1'R, 2"S, 5R, 6S and 1'S, 2"R, 5S, 6R)-6-(1'-hydroxyethyl)-2-(2"-tetrahydrofuranyl)penem-3-carboxylate]		0.2		12.5	0.05		1.56	0.1	25		25	12.5	1.56	1.56
C[C@@H](O)[C@H]1C(=O)N2C(C(=O)O)=C(c3ccco3)S[C@H]12 (relative stereo) [SUN 4194, Potassium (1'R, 5R, 6S and 1',S, 5S, 6R)-2-(2"-furanyl)-6-(1'-hydroxyethyl)penem-3-carboxylate, reference compound]	12.5	6.25	25	25	0.2	0.39	3.13	0.39	25	3.13	25	25	6.25	6.25
C[C@@H](O)[C@H]1C(=O)N2C(C(=O)O)=C([C@H]3CCC(=O)O3)S[C@H]12 [SUN 4374, Potassium (1'R, 2"R, 5R, 6S)-6-(1'-hydroxyethyl)-2[2"-(5"-oxo)oxolanyl]penem-3-carboxylate]	3.13		1.56	1.56	0.1		0.78	0.1	3.13	0.39	3.13	0.78		1.56
C[C@@H](O)[C@H]1C(=O)N2C(C(=O)O)=C([C@@H]3CCCO3)S[C@H]12 [SUN 4434, Potassium (1'R, 2"S, 5R, 6S)-6-(1'-hydroxyethyl)-2-(2"-tetrahydofuranyl)penem-3-carboxylate]		0.2		12.5	< 0.025		0.78	0.05	25		12.5	6.25	1.56	3.13
